Measured values: US20070155803A1, “Protease inhibitors” (ProZymex A/S, priority 2003, published 2007)
Square brackets hold non-standard residues; d marks the D form. Peptide text beside a SMILES is read from it. Phe(3-F) = N[C@@H](Cc1cccc(F)c1)C(=O)O; hPhe = N[C@@H](CCc1ccccc1)C(=O)O; Abu = CC[C@H](N)C(=O)O; azaGly = NNC(=O)O

Columns and labels:
Format in all cases: biochemical
Human liver cathepsin H = target: T1, Human liver cathepsin H (Homo sapiens, UniProt P09668); test: Human liver cathepsin H assay
T1 construct: Human liver catheptin H (Enzyme System Products Cath-1; 25 μg); purchased Enzyme System Products Cath-1; host or cells: human liver
T1 sequence (P09668 98-335): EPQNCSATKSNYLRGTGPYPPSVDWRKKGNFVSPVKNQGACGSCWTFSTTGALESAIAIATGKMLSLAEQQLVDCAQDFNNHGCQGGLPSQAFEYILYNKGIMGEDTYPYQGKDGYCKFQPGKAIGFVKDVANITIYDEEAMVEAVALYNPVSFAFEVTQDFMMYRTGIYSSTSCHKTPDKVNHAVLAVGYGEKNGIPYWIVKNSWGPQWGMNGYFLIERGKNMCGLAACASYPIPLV
Method: Human Liver Cathepsin H Assay
Using this assay, the selectivity of a compound of the invention for hDPP-I over human cathepsin H was determined, using a fluorogenic substrate.
Human liver catheptin H (Enzyme System Products Cath-1; 25 μg) was solubilized in 60 μL enzyme buffer (giving a stock with a concentration of 417 ng/μL). Enzyme stock (5 μL) was diluted with 1245 μL enzyme-buffer. Prior to running experiment 1 μL 0.5 M DTT/100 μL enzyme solution was added. Incubated for 5 minutes on ice, then added to reaction mixture.
ARG-AFC*2HBR (Enzyme System Products AF002; 10.6 mg) was dissolved in 1 mL DMSO, giving a 20 mM solution. Km for this substrate has been determined to be 27 μM
The assay was performed in 96-well plates. 50 μL assay buffer was added to the well followed by 25 μL reference inhibitor (cystatin; stock 1 mg/mL, diluted with assay buffer to give 10 nM in assay) or a compound of the invention (diluted with assay buffer to give 10 μM in the assay). Then 25 μL (40 ng) enzyme was added, and 1 min. later (at 37° C.), 100 μL ARG-AFC substrate (15 μM in the assay) was added. The excitation wavelength was 400 nm, and the emission was measured at 505 nm for 10-20 minutes at 37° C. […] In the software (SOFTmax Pro) used for data collection from the fluorometer (Molecular Devices: Gemini XS) it was ensured that the measured slopes were linear (R^2>0.99). […]

[1] = target: T2, Human neutrophil elastase (Homo sapiens, UniProt P08246); test: Human neutrophil elastase assay
T2 construct: purchased Calbiochem 324681
T2 sequence (P08246 30-267): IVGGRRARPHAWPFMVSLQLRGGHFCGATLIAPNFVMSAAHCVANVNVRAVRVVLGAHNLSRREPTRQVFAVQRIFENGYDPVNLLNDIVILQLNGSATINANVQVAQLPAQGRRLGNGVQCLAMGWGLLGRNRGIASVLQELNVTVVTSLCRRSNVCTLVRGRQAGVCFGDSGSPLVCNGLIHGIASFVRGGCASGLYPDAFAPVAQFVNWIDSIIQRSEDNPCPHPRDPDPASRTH
Method: Human Neutrophil Elastase Assay
Using this assay, the selectivity of a compound of the invention for hDPP-I over human neutrophil elastase was determined, using a fluorogenic substrate.
Buffer containing 100 mM Tris/HCl pH 7.5 (25° C.), and 500 mM NaCl.
Human neutrophil elastase (Calbiochem Cat # 324681, 50 ng/µL stock) was reconstituted in 50 mM sodium acetate pH 5.5 and 200 mM NaCl, then stored at −20° C. Diluted to 1 ng/μL in buffer just prior to experiment.
MeOSuc-Ala-Ala-Pro-Val-AMC (Calbiochem Cat # 324740) was dissolved in buffer to 4 mM (398 μL/mg) just prior to experiment. Km was determined to be 560 μM.
The assay was performed in 96-well plates. 80 μL assay buffer was added to the well followed by 10 μL enzyme (1 ng/μL). Incubated for 10 min. at 37° C., then 10 μL substrate was added, and subsequently a compound of the invention (10 μM in the assay) The excitation wavelength was 380 nm, and the emission was measured at 460 nm for 10-20 minutes at 37° C. Each measurement was made in duplicate. In the software (SOFTmax Pro) used for data,collection from the fluorometer (Molecular Devices: Gemini XS), it was ensured that the measured slopes were linear (R^2>0.99). Data was exported to GraphPad Prism and nonlinear regression was performed using the option sigmoidal dose-response (variable slope).

Human liver cathepsin L = target: T3, Human liver cathepsin L (Homo sapiens, UniProt P07711); test: Human liver cathepsin L assay
T3 construct: Human liver cathepsin L (Enzyme System Products, Catl-1); purchased Enzyme System Products Catl-1; host or cells: human liver
T3 sequence (P07711 114-333): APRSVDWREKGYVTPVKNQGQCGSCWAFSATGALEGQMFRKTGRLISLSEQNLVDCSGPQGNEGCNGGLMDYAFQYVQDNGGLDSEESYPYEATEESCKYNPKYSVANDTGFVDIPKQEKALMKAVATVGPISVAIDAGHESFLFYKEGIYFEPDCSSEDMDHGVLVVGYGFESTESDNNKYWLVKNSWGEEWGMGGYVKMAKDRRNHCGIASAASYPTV
Method: Human Liver Catheosin L Assay
Using this assay, the selectivity of a compound of the invention for hDPP-I over human cathepsin L was determined, using a fluorogenic substrate.
Human liver cathepsin L (Enzyme System Products, Catl-1; 5 μL of a 1.61 μU/IμL stock) was solubilized in 2500 μL enzyme buffer. Prior to running experiment, 1 μL 0.5 M DTT/100 μL enzyme Solution was added. inoubated for 5 minutes on ice then added to reaction mixture.
Z-Phe-ARG-AFC*TFA (Enzyme System Products AF052; 15.6 mg) was dissolved in 1 mL DMSO, giving a 20 mM solution.
The assay was performed in 96-well plates. 50 μL assay buffer was added to the well followed by 25 μL reference inhibitor (cystatin, stock 1 mg/mL, diluted with assay buffer to give 25 nM in assay) or a compound of the invention (diluted with assay buffer to give 10 μM in the assay). Then 25 μL (80 nU) enzyme was added, and 1 min. later (at 37° C.) 100 μL substrate (10 μM in the assay) was added. The excitation wavelength was 400 nm, and the emission was measured at 505 nm for 10-20 minutes at 37° C. Each measurement was made in duplicate. In the software (SOFTmax Pro) used for data collection from the fluorometer (Molecular Devices: Gemini XS), it was ensured that the measured slopes were linear (R^2>0.99). Data were exported to GraphPad Prism and nonlinear regression was performed using the option Sigmoidal dose-response (variable slope).

`CC[C@H](N)C(=O)NNC(=O)N[C@@H](CCc1ccccc1)C(=O)N[C@@H](Cc1cccc(F)c1)C(N)=O` [Example 11, 1-(2S-2-Aminobutanoyl)-4-[2S-N-[2S-3-(m-fluorophenyl)propan-2-yl-amide]-4-phenylbutan-2-yl-amide]semicarbazide] (H-[Abu][azaGly][hPhe][Phe(3-F)]-NH2) was tested, and the “Inhibition of Cathepsin H (in words)” value (Human liver cathepsin H) was “does not inhibit”, the IC50 (Human liver cathepsin H; human liver cathepsin H, read-out: Secondary enzymatic screening (10 μM cutoff or IC50) Cathepsin H) was 3.2 µM and the “Inhibition of neutrophil elastase (in words)” value [1] was “does not inhibit”. For the same compound, the IC50 ([1]; human neutrophil elastase, 10 μM cutoff, read-out: Secondary enzymatic screening (10 μM cutoff or IC50) Neutrophil elastase) was over 10 µM, the “Inhibition of Cathepsin L (in words)” value (Human liver cathepsin L) was “does not inhibit” and the IC50 (Human liver cathepsin L; human liver cathepsin L, 10 μM cutoff, read-out: Secondary enzymatic screening (10 μM cutoff or IC50) Cathepsin L) was over 10 µM.
